What follows are molecules tested against T1, S1P5 receptors (Homo sapiens, UniProt Q9H228) (assay: [35S]-GTPγS binding assay on CHO-S1P5 membranes (S1P5 agonism)). Settings: membranes of CHO cells expressing recombinant S1P5; measure of S1P5 agonism.
T1 construct: expressed in transfected cells; host or cells: CHO cells (membranes)
Assay type: biochemical
Protocol: CHO cells expressing recombinant S1P5 receptors were cultured in 500 cm^2 culture trays and, once confluent, rinsed and detached with cell-lifting buffer (10 mM HEPES, 154 mM NaCl, 6.85 mM EDTA, pH 7.4). Cells were then pelleted by centrifugation, resuspended, and homogenized in membrane preparation buffer (10 mM HEPES and 10 mM EDTA, pH 7.4) using a Polytron PT 1200E homogenizer (Kinematica, Luzern, Switzerland). Cellular proteins were pelleted by centrifugation at 48,000×g at 4° C. for 30 minutes. The resulting supernatant was discarded, and the pellet was re-suspended again in membrane preparation buffer, homogenized for a second time, and then centrifuged again as described above. The final cellular protein pellet was suspended in ice cold resuspension buffer (10 mM HEPES and 0.1 mM EDTA, pH 7.4), divided into aliquots, and stored at −80° C. until use.
Functional binding assays for [^35S]-GTPγS were performed in 96-well non-binding surface plates with a final volume of 200 μL. The test compounds were serially diluted in DMSO and added to assay plates using a Tecan D300E digital printer with a total volume of 0.4 μL. The control sphingosine-1-phosphate (SIP) was prepared separately by preparing a 400 µM stock solution from a 100 nmol pellet of S1P in 10 mM Na2CO3 with 2% β-cyclodextrin. The serial dilution of S1P was done using complete assay buffer (20 mM HEPES, 10 mM MgCl2, 100 mM NaCl, 1 mM EDTA, 0.1% fatty acid free bovine serum albumin (BSA), and 30 μg/mL saponin, pH 7.4) and transferred to wells already containing 0.4 μL DMSO. All the wells were then loaded to a total volume of 40 μL of complete assay buffer, except the non-specific binding (NSB) wells. For NSB wells, 40 μL/well of 50 μM GTPγS (Sigma Aldrich, cat #G8634, St. Louis, MO) was added to wells containing 0.4 μL of DMSO. The assay was started by the addition of 120 μL/well of CHO-SIP receptor membrane solution containing 40 μg/mL of membrane protein, 16.67 μM guanosine diphosphate (GDP; Sigma Aldrich, cat #G7127, St. Louis, MO), and 2.5 mg/mL of WGA PVT SPA beads in complete buffer. Assay plates were then sealed and incubated at room temperature with gentle agitation for 30 minutes. Next, 40 μL/well of 1 nM of [^35S]-GTPγS (PerkinElmer, cat #NEG030X^250UC, Waltham, MA) in basic assay buffer (20 mM HEPES, 10 mM MgCl2, 100 mM NaCl, and 1 mM EDTA, pH7.4) was added to the assay plates to yield a final concentration of […] and the plates were further incubated for 40 minutes at room temperature with gentle agitation. The assay was terminated by centrifugation of the plates at 1000 rpm for 3 minutes using an Eppendorf 5810R centrifuge (Eppendorf, Hamburg, Germany) and G protein bound radioactivity was quantitated using a MicroBeta2 microplate scintillation counter (PerkinElmer, Waltham, MA). As G protein bound radioactivity directly correlates to receptor activation and coupling to the G protein, this assay is a measure of S1P5 agonism.

T1 sequence (Q9H228 whole entry): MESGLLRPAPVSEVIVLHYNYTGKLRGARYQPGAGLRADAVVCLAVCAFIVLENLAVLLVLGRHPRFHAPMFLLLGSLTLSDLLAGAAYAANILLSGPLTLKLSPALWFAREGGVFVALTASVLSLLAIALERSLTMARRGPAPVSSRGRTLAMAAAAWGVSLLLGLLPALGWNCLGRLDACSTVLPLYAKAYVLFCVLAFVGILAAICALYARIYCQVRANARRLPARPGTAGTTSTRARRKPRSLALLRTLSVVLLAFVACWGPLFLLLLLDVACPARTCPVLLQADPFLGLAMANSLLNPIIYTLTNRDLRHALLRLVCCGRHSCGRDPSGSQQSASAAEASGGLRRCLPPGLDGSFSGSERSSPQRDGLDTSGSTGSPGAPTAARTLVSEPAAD

Row | SMILES | EC50 [nM]
1 | CC1(O)CN(C2CCc3cc(C#Cc4cccc(F)c4)ccc32)C1 (single isomer, unassigned) [Compound 2b, 1-[5-[2-(3-fluorophenyl)ethynyl]indan-1-yl]-3-methyl-azetidin-3-ol] | 10 to 100
2 | Cc1c(C#Cc2cccc(F)c2)ccc2c1CCC2N1CC(C)(O)C1 (single isomer, unassigned) [Compound 17a, 1-[5-[2-(3-fluorophenyl)ethynyl]-4-methyl-indan-1-yl]-3-methyl-azetidin-3-ol] | 10 to 100
3 | CC1(O)CN(Cc2ccc(C#Cc3cccc(F)c3)cc2)C1 [Compound 29, 1-(4-((3-fluorophenyl)-ethynyl)benzyl)-3-methylazetidin-3-ol] | 100 to 1000
4 | Cc1cc2c(c(C)c1-c1ccc(C3CC3)c(Cl)c1)CCC2N1CC(C)(O)C1 (single isomer, unassigned) [Compound 25b, 1-(5-(3-chloro-4-cyclopropylphenyl)-4,6-dimethyl-2,3-dihydro-1H-inden-1-yl)-3-methylazetidin-3-ol] | 1 to 10
5 | CC1(O)CCN(C2CCc3cc(C4CN(c5c(Cl)cccc5Cl)C4)ccc32)C1 (stereo not drawn) [Compound 9, 1-(5-(1-(2,6-dichlorophenyl)azetidin-3-yl)-2,3-dihydro-1H-inden-1-yl)-3-methylpyrrolidin-3-ol] | 100 to 1000
6 | Cc1cc(-c2ccc(C3CC3)c(Cl)c2)cc2c1C(N1CC(C)(O)C1)CC2 (single isomer, unassigned) [Compound 10a, 1-[5-(3-chloro-4-cyclopropyl-phenyl)-7-methyl-indan-1-yl]-3-methyl-azetidin-3-ol] | 1 to 10
7 | Cc1cc(-c2ccc(C3CC3)c(Cl)c2)c(C)c2c1C(N1CC(C)(O)C1)CC2 (single isomer, unassigned) [Compound 26b, 1-[5-(3-chloro-4-cyclopropyl-phenyl)-4,7-dimethyl-indan-1-yl]-3-methyl-azetidin-3-ol] | 1 to 10
8 | CC1(O)CN(C2CCc3cc(-c4ccc(C5CC5)c(Cl)c4)ccc32)C1 (single isomer, unassigned) [Compound 5a, 1-[5-(3-chloro-4-cyclopropyl-phenyl)indan-1-yl]-3-methyl-azetidin-3-ol] | 10 to 100
9 | Cc1cc(CCc2c(Cl)cccc2Cl)cc2c1C(N1CC(C)(O)C1)CC2 (single isomer, unassigned) [Compound 14a, 1-[5-[2-(2,6-dichlorophenyl)ethyl]-7-methyl-indan-1-yl]-3-methyl-azetidin-3-ol] | 1 to 10
10 | CC1(O)CN(C2CCc3cc(C#Cc4ccccc4F)ccc32)C1 (single isomer, unassigned) [Compound 1b, 1-[5-[2-(2-fluorophenyl)ethynyl]indan-1-yl]-3-methyl-azetidin-3-ol] | 10 to 100
11 | Cc1cc(OCc2c(Cl)cccc2Cl)cc2c1C(N1CC(C)(O)C1)CC2 (single isomer, unassigned) [Compound 15b, 1-[5-[(2,6-dichlorophenyl)methoxy]-7-methyl-indan-1-yl]-3-methyl-azetidin-3-ol] | 1 to 10
12 | CC1(O)CCN(C2CCc3cc(-c4ccc(C5CC5)c(Cl)c4)ccc32)CC1 (stereo not drawn) [Compound 6, 1-(5-(3-chloro-4-cyclopropylphenyl)-2,3-dihydro-1H-inden-1-yl)-4-methylpiperidin-4-ol] | 1000 to 10000
13 | Cc1c(OCc2c(Cl)cccc2Cl)ccc2c1CCC2N1CC(C)(O)C1 (single isomer, unassigned) [Compound 19a, 1-[5-[(2,6-dichlorophenyl)methoxy]-4-methyl-indan-1-yl]-3-methyl-azetidin-3-ol] | 1 to 10
14 | CC1(O)CN(Cc2ccc(C3CN(c4c(Cl)cccc4Cl)C3)cc2)C1 [Compound 31, 1-(4-(1-(2,6-dichlorophenyl)azetidin-3-yl)benzyl)-3-methylazetidin-3-ol] | 10 to 100
15 | Cc1cc(-c2ccc(C3CC3)c(Cl)c2)cc2c1C(N1CCC(C)(O)C1)CC2 (stereo not drawn) [Compound 12, 1-(5-(3-chloro-4-cyclopropylphenyl)-7-methyl-2,3-dihydro-1H-inden-1-yl)-3-methylpyrrolidin-3-ol] | 100 to 1000
16 | CC1(O)CN(C2CCc3cc(-c4ccc(C5CC5)c(Cl)c4)ccc32)C1 (single isomer, unassigned) [Compound 5b, 1-[5-(3-chloro-4-cyclopropyl-phenyl)indan-1-yl]-3-methyl-azetidin-3-ol] | 10 to 100

Results, then the molecule that gave them:

Row | EC50 [nM] | SMILES
17 | 1000 to 10000 | CC1(O)CN(Cc2ccc(C3CN(c4c(Cl)cccc4Cl)C3)nc2)C1 [Compound 58, 1-((6-(1-(2,6-dichlorophenyl)azetidin-3-yl)pyridin-3-yl)methyl)-3-methylazetidin-3-ol]
18 | 100 to 1000 | CCc1cc(C2CN(c3c(Cl)cccc3Cl)C2)cc(CC)c1CN1CC(C)(O)C1 [Compound 52, 1-(4-(1-(2,6-dichlorophenyl)azetidin-3-yl)-2,6-diethylbenzyl)-3-methylazetidin-3-ol]
19 | 10 to 100 | CCc1cc(C2CN(c3c(Cl)cccc3Cl)C2)cc(C)c1CN1CC(C)(O)C1 [Compound 51, 1-(4-(1-(2,6-dichlorophenyl)azetidin-3-yl)-2-ethyl-6-methylbenzyl)-3-methylazetidin-3-ol]
20 | 1 to 10 | Cc1cc(CN2CC(C)(O)C2)cc(C)c1N1CC(c2c(Cl)cccc2Cl)C1 [Compound 63, 1-(4-(3-(2,6-dichlorophenyl)azetidin-1-yl)-3,5-dimethylbenzyl)-3-methylazetidin-3-ol]
21 | 1000 to 10000 | CC1(O)CCN(Cc2ccc(N3CC(c4c(Cl)cccc4Cl)C3)cc2)CC1 [Compound 32, 1-(4-(3-(2,6-dichlorophenyl)azetidin-1-yl)benzyl)-4-methylpiperidin-4-ol]
22 | 1 to 10 | Cc1cc(N2CC(c3c(Cl)cccc3Cl)C2)c(C)cc1CN1CC(C)(O)C1 [Compound 62, 1-(4-(3-(2,6-dichlorophenyl)azetidin-1-yl)-2,5-dimethylbenzyl)-3-methylazetidin-3-ol]
23 | 100 to 1000 | Cc1cc(C2CN(c3c(Cl)cccc3Cl)C2)cc(C)c1CN1CC(O)(C(F)F)C1 [Compound 40, 1-(4-(1-(2,6-dichlorophenyl)azetidin-3-yl)-2,6-dimethylbenzyl)-3-(difluoromethyl) azetidin-3-ol]
24 | 10 to 100 | Cc1cc(C2CN(c3c(Cl)cccc3Cl)C2)cc(F)c1CN1CC(C)(O)C1 [Compound 48, 1-(4-(1-(2,6-dichlorophenyl)azetidin-3-yl)-2-fluoro-6-methylbenzyl)-3-methylazetidin-3-ol]
25 | 100 to 1000 | Cc1cc(C2CN(c3c(Cl)cccc3Cl)C2)cc(C)c1CN1CC(O)(CF)C1 [Compound 39, 1-(4-(1-(2,6-dichlorophenyl)azetidin-3-yl)-2,6-dimethylbenzyl)-3-(fluoromethyl) azetidin-3-ol]
26 | 1000 to 10000 | Cc1cc(C2CN(c3cccc(F)c3)C2)cc(C)c1CN1CC(C)(O)C1 [Compound 45, 1-(4-(1-(3-fluorophenyl)azetidin-3-yl)-2,6-dimethylbenzyl)-3-methylazetidin-3-ol]
27 | 10 to 100 | CC1(O)CN(Cc2ccc(C3CN(c4c(Cl)cccc4Cl)C3)cc2C2CC2)C1 [Compound 50, 1-(2-cyclopropyl-4-(1-(2,6-dichlorophenyl)azetidin-3-yl)benzyl)-3-methylazetidin-3-ol]

— patent US20260022094A1, “Compounds for the Treatment of Neurodegenerative Diseases” (Celgene Corporation, priority 2022, published 2026)
